Source: patent US20160206623A9, “Composition For Prevention of Vasoactivity in the Treatment of Blood Loss and Anemia” (priority 2012, published 2016)

Tested on: segments of the rat thoracic aorta (RTA)
Assay: Vasoactivity (isometric tension) of rat thoracic aorta rings in tissue bath

## COc1ccc([C@@H]2Sc3ccccc3N(CCN(C)C)C(=O)[C@@H]2OC(C)=O)cc1 [DLT, Diltiazam]
HES 4.4 uM + PHE, DLT 10^-7 to 10^-5 M (FIG. 8, a2-d2)
  vasoconstriction with HES + PHE: the vasoconstriction is reduced
PHE without hemoglobin, different concentrations of additive (DLT 10^-7 to 10^-5 M)
  effect on PHE induced vasoconstriction: reduces the vasoconstrictive effect of PHE

## CNC[C@H](O)c1cccc(O)c1 [PHE, Phenylephrine]
PHE added after SFH, preliminary experiments
  tension of the RTA: increase the tension of the RTA significantly

## COc1cc2nc(N3CCN(C(=O)C4CCCO4)CC3)nc(N)c2cc1OC (stereo not shown) [TER, Terazosin]
Terazosin suboptimal 10^-8 M, SFH+PHE (FIG. 9)
  vasoconstrictive effect of SFH: reduces the vasoconstrictive effect of SFH
